Measurements published in patent publication US20060210479A1 (Dow Global Technologies Inc., priority 2004, published 2006).
Entries after “also recorded” stand apart in the source; their conditions may differ.

Columns and labels:
Caco-2 cells [1] = assay: Adsorption of chelate compounds to cells (HPLC and mass spectrometry); format: cell-based, human
From the text: (§1) As a prerequisite for the understanding of the functional attributes of Tb-PCTMB and Eu-QCTME for diagnostics and therapeutic purposes, and for other uses, it is useful to synthesize a series of chelate compounds that contain structural elements of both PCTMB and QCTME and test these compounds for adsorption and permeability to different cell lines. The first approach was to test for adsorption to a normal cell line (HEK293) and to two epithelial cancer cell lines (LNCaP and Caco-2). The second approach, described in this example, involves testing only the compounds that adsorbed in the cancer cell lines and not in the normal cell lines for permeability. Adsorption and permeability of the compounds to epithelial cancer cell lines and a normal cell line was measured through the detection of the compound by HPLC and mass spectrometry.
(§2) Cell cultures. LNCaP cell line is a human prostate carcinoma. Cells were grown in RPMI 1640 Medium supplemented 10% FBS, 2 mM L-glutamine, glucose (2 g/L) augmented with gentamicin (50 μg/mL), penicillin/streptomycin (100 IU/mL/100 μg/mL) and amphotericin B (2.5 μg/mL). Caco-2 cell line is a human colorectal carcinoma. These cells were grown in Eagle's Minimum Essential Medium supplemented with 20% FBS, Earle's BSS, 2 mM L-glutamine, 1.0 mM sodium pyruvate, 0.1 mM nonessential amino acids augmented with gentamicin (50 μg/mL), penicillin/streptomycin (100 IU/mL/100 μg/mL), and amphotericin B (2.5 μg/mL). The human kidney transformed cells HEK293 were grown in Eagle's Minimum Essential Medium (EMEM) supplemented with 10% (v/v) heat-inactivated fetal bovine serum, sodium pyruvate, nonessential amino acids and antibiotics in a humidified 5% CO2 atmosphere at 37° C. Medium and supplements were purchased from Gibco BRL (Grand Island, N.Y.) and all cell lines were obtained from ATCC.
(§3) Detection of chelate compounds for the determination of adsorption. Cells were grown to confluence in T-150 flasks (about 2×10^7 cells). Before treating with chelate compounds, cells were rinsed twice with warm 10 mM HEPES (Gibco BRL, Grand Island N.Y.), removed from the flask, and transferred to a 50-mL conical tube and centrifuged (400×g) for 5 minutes. The resulting cells were treated with individual chelate compounds with 50 µM of chelate compounds in 10 mM HEPES, pH 7.4, 5 mM KCl, 150 mM NaCl, 0.7 mM NaH2PO4 for 0, 30, and 90 minutes at 37 ° C. After treatment, cells were pelleted by centrifugation and the resulting solution was analyzed by a combination of HPLC and mass spectrometry.

HEK293 cells [2] = assay: as above; format: cell-based, human
From the text: as §1, §2, §3

LNCaP cells [3] = assay: as above; format: cell-based, human
From the text: as §1, §2, §3

HEK293 cells [4] = assay: Permeability: detection of chelate compounds in the cytoplasm; format: cell-based, human; design: key: Absence = 0; presence = +; conditions: 50 μM, 90 minutes at 37 °C
Experimental: as §2
(§4) Detection of chelant compounds for the determination of permeability. Cells were grown to confluence in T-150 flasks (about 2×10^7 cells). Before treating with chelate compounds, cells were rinsed twice with warm 10 mM HEPES (Gibco BRL, Grand Island N.Y.), removed from the flask, and transferred to a 50-mL conical tube and centrifuged (400×g) for 5 minutes. The resulting cells were treated with individual chelate compounds with 50 μM of chelate compounds in 10 mM HEPES, pH 7.4, 5 mM KCl, 150 mM NaCl, 0.7 mM NaH2PO4 for 90 minutes at 37° C. After treatment, cells were pelleted by centrifugation, the cytoplasm was extracted by Mem-PER Eukaryotic Membrane Protein Extraction Reagent Kit as described by manufacturers (Pierce biotechnology, Rockford, Ill.) and the resulting solution was analyzed by a combination of HPLC and mass spectrometry (Table 8).

Caco-2 cells [5] = assay: as above; format: cell-based, human; design: key to Permeability Caco-2: Absence = 0; presence = +
Experimental: as §2, §4

LNCaP cells [6] = assay: as above; format: cell-based, human; design: key to Permeability LNCaP: Absence = 0; presence = +
Experimental: as §2, §4

Cytokeratin 8 = target: T1, Cytokeratin 8 (Homo sapiens, UniProt P05787); assay: Elution and identification of target-chelate compound associations; format: binding
T1 construct: Caco-2 and LNCaP cell lines were lysed by sonication or by lysis in hypotonic buffer; endogenous in cells; host or cells: Caco-2 and LNCaP
T1 sequence (P05787 1-483): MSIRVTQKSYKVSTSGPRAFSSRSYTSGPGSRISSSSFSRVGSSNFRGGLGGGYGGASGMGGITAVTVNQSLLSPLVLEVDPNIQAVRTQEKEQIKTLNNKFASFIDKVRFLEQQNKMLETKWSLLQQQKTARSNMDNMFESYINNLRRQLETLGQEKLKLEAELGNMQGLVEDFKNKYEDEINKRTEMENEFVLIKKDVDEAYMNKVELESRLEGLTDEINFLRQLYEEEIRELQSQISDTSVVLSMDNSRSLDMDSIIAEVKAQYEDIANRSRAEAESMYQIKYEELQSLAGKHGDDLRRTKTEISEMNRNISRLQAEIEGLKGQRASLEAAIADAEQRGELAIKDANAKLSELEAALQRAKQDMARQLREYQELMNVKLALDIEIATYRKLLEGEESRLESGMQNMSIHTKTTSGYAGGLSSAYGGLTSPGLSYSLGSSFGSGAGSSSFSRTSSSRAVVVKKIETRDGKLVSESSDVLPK
T1 sequence (P05783 2-430 partner limits assumed): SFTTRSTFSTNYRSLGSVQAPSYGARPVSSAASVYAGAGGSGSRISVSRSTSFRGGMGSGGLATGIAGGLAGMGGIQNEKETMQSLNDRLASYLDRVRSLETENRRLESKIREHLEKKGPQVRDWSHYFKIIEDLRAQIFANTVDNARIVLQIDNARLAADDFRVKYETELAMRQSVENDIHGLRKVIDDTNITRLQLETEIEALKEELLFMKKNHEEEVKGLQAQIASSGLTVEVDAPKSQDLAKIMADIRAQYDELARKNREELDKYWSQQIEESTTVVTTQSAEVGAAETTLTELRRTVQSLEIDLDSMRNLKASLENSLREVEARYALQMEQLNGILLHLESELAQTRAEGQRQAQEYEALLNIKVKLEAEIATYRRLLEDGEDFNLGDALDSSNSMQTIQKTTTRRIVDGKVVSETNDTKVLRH
Experimental: (§5) Identification of novel target-chelate compound associations—Caco-2 and LNCaP cell lines were lysed by sonication or by lysis in hypotonic buffer. Soluble proteins were enriched and captured on an affinity support column. […] Proteins were eluted by adding different chelate compounds that compete for the bound ligand or change the steric structure of a given protein(s). Eluted samples were analyzed by high resolution SDS-PAGE. The protein-chelate compound associations were further analyzed to identify the different proteins by excising the corresponding protein bands from the gel, which was then treated with trypsin and purified. […]

Keratin 18 = target: T2, Keratin 18 (Homo sapiens, UniProt P05783); assay: as above; format: binding
T2 construct: Caco-2 and LNCaP cell lines were lysed by sonication or by lysis in hypotonic buffer; endogenous in cells; host or cells: Caco-2 and LNCaP
T2 sequence (P05783 2-430 limits assumed): T1 sequence (P05783 2-430 partner limits assumed)
T2 sequence (P05787 1-483 partner): T1 sequence (P05787 1-483)
Experimental: as §5

[7] = Solubility of chelate compounds; conditions: <5% methanol, ethanol, or DMSO
LNCaP cell line = assay: Chelate permeability: fluorescence of cytoplasm and membrane fractions; format: cell-based, human; conditions: 1 mM chelate, 2 h, Table 4
T84 cell line = assay: as above; format: cell-based, human; conditions: 1 mM chelate, 2 h, Table 4
Caco-2 cell line = assay: as above; format: cell-based, human; conditions: 1 mM chelate, 2 h, Table 4
RBL-2H3 cell line = assay: as above; format: cell-based, rat; conditions: 1 mM chelate, 2 h, Table 4
Experimental: Tb-PCTMB (Tb(III) 3,6,9-tris(methylene phosphonic acid n-butyl ester)-3,6,9,15-tetraazabicyclo[9.3.1]pentadeca-1(15),11,13-triene) was tested for permeability to abnormal and disease-state cells.
RBL-2H3 is a rat basophilic leukemia cell line. These cells were grown in Iscove's Medium supplemented with 2 mM L-glutamnine, penicillin/streptomycin (100 IU/mL, 100 μg/mL) and 10% FBS. Cells were maintained at 5% CO2 and 95% humidity. PZ-HPV-7 cell line was derived from epithelial cells cultured from normal prostate tissue. They were grown in Keratinocyte-Serum Free Medium with human recombinant EGF and bovine pituitary extract supplemented with 50 μg/mL gentamicin and penicillin/streptomycin (100 IU/mL, 100 μg/mL). All media and supplements were purchased from Gibco BRL (Grand Island, N.Y., USA). All cell lines were obtained from ATCC and were maintained at 37° C., 5% CO2 and 95% humidity.
Cells were grown to confluence in T-150 flasks (about 2×10^6 cells). […] Cells were then removed from the flask by manual scraping. Cells were transferred to a 50-mL conical tube and centrifuged (400×g) for 5 minutes and the test material removed.
Cells were grown as described herein (Example 1). Cells were grown to confluence in T-150 flask (about 2×10^6 cells). […] Cells were then removed from the flask by manual scraping. Cells were transferred to a 50-mL conical tube and centrifuged (400×g) for 5 minutes and the test material removed.
Furthermore, one analogue, QCTMP (FIG. 26), having lesser lipophilic character (a free phosphonic acid moiety) was evaluated. […] In this study, the cytoplasm and membrane fractions were extracted by Mem-PER Eukaryotic Membrane Protein Extraction Reagent Kit as described by the manufacturers (Pierce Biotechnology, Rockford, Ill.) and analyzed by a Fluor-S Multilmager.

[8] = test system: PZ-HPV-7 normal cell line; assay: as above; format: cell-based; conditions: PZ-HVP-7; 1 mM chelate, 2 h; Table 4
[9] = test system: HEK293 cells, normal (non-induced); assay: Permeability of chelates to HEK293 cells, fluorescence of fractions; format: cell-based, human
Experimental: (§6) The human kidney transformed HEK293 cells (obtained from the ATCC) were grown in Eagle's Minimum Essential Medium (EMEM) supplemented with 10% (v/v) heat-inactivated fetal bovine serum, sodium pyruvate, nonessential amino acids and antibiotics in a humidified 5% CO2 atmosphere at 37° C. Medium and supplements were purchased from Gibco bRL (Grand Island, N.Y.). Etoposide was obtained from Sigma (St. Louis, Mo.) and prepared as 20 mM solution in dimethyl sulfoxide (DMSO). For treatments, etoposide was applied to the HEK293 cultures at 1:1000 dilution (final concentration of 20 μM) after cell became 75% confluent. As a control, cells were fed with medium containing 0.1% DMSO in the absence of etoposide. After treatment with etoposide, cells were incubated in a humidified 5% CO2 at 37° C. for 24 hours. HEK293 cells were collected by removing treatment medium and washed 2 times with 10 mM HEPES buffer. Final cell pellets were resuspended in a small amount of HEPES and stored at 4° C. for further study.
(§7) Cells were grown to confluence in T-150 flasks (about 2×10^6 cells). […] After treatment, the chelate or analogue supernatant was discarded and the cells were rinsed three times at room temperature with 10 mM HEPES. Cells were then removed from the flask by manual scraping. Cells were transferred to a 50-mL conical tube and centrifuged (400×g) for 5 minutes and the test material removed. Remaining cells were rinsed twice with cold 10 mM HEPES. Cells were used in cell binding assays.

[10] = test system: etoposide-induced (apoptotic) HEK293 cells; assay: Permeability of chelates to apoptotic cells, fluorescence of fractions; format: cell-based, human
Experimental: as §6, §7

[11] = test system: cancer cells (LNCaP, Caco-2, T84); assay: Chelate permeability and specificity, cancer cells versus normal cells (summary); format: cell-based, human
[12] = 50 µM chelate compound, 0, 30 and 90 minutes at 37 °C, % adsorbed relative to time zero
[13] = 50 μM, 90 minutes at 37 °C, detection in the cytoplasm
[14] = HEK293 Normal, 1 mM chelate, 2 hours
[15] = HEK293 Apoptotic (etoposide 20 μM, 24 hours), 1 mM chelate, 2 hours

SMILES: CCOP(=O)(O)Cc1cc(CP(=O)(O)OCC)cc(CP(=O)(O)OCC)c1 [Compound 8, [3,5-Bis-(Ethoxy-hydroxy-phosphorylmethyl)-benzyl]-phosphonic acid monoethyl ester]
- adsorption in carcinoma cell line Caco-2 (Caco-2 cells [1]): adsorbed
- Adsorption Caco-2 (Caco-2 cells [1]; [12]): +++ (+++ = 41-60%)
- adsorption in normal cells (HEK293) (HEK293 cells [2]): not adsorbed
- Adsorption HEK293 (HEK293 cells [2]; [12]): 0 (0 = 0-10%)
- adsorption in carcinoma cell line LNCaP (LNCaP cells [3]): adsorbed
- Adsorption LNCaP (LNCaP cells [3]; [12]): +++ (+++ = 41-60%)
- Permeability HEK293 (HEK293 cells [4]): 0
- Permeability Caco-2 (Caco-2 cells [5]; [13]): +
- detection within the cytoplasm (Caco-2 cells [5]; carcinoma cell line Caco-2): detected within the cytoplasm
- Permeability LNCaP (LNCaP cells [6]; [13]): +
- detection within the cytoplasm (LNCaP cells [6]; carcinoma cell line LNCaP): detected within the cytoplasm
- binding to cytokeratin 8 (Seq. ID No. 10) (Cytokeratin 8): found to bind; also recorded: bind specifically
- binding to keratin 18 (Seq. ID No. 9) (Keratin 18): found to bind; also recorded: bind specifically
- solubility [7]: > 10 mM

SMILES: Cc1ccc2nc(CN3CCN(CP(=O)([O-])O)CCN(CP(=O)([O-])O)CCN(CP(=O)([O-])O)CC3)ccc2c1.[Eu+3] [Eu-QCTMP]
- Fluorescence/mg Cytoplasm (LNCaP cell line): 2287
- Fluorescence/mg Membrane (LNCaP cell line): 2301
- Fluorescence/mg Cytoplasm (T84 cell line): 2230
- Fluorescence/mg Membrane (T84 cell line): 2259
- Fluorescence/mg Cytoplasm (Caco-2 cell line): 2300
- Fluorescence/mg Membrane (Caco-2 cell line): 2314
- Fluorescence/mg Cytoplasm (RBL-2H3 cell line): 2311
- Fluorescence/mg Membrane (RBL-2H3 cell line): 2311
- Fluorescence/mg Cytoplasm [8]: 2276
- Fluorescence/mg Membrane [8]: 2271
- Fluorescence/mg Cytoplasm [9, 14]: 1732
- Fluorescence/mg Membrane [9, 14]: 1738
- differential fluorescence, cytoplasm versus membrane fractions ([9]; normal HEK293 cells): did not show any significant differential fluorescence
- Fluorescence/mg Cytoplasm [10, 15]: 1450
- Fluorescence/mg Membrane [10, 15]: 1800
- differential fluorescence, cytoplasm versus membrane fractions ([10]; etoposide-induced HEK293 cells): did not show any significant differential fluorescence
- specificity or selectivity for cancer cells versus normal cells [11]: did not show any specificity or selectivity
- permeability to cell membranes ([11]; cancer cells): did not appear to be permeable
